Results reported in US20160361244A1, “USE OF THE INHIBITOR OF STEROID SULFATASES STX64 FOR TREATING AGING” (U[…] DE OLAVIDE, priority 2013, published 2016).

System: wild type C. elegans
Test: Longevity curves of C. elegans in the presence of the steroid sulfatase inhibitor
Format: in vivo
Conditions: for longevity (longevity curve) versus control population exposed to the inhibitor solvent (DMSO): 25° C., p=0.0139, n>100, FIG. 3
Protocol: In order to generate the longevity curves, the strains under study and their pertinent controls were first subjected to an egg preparation in order to prevent contaminations and synchronise them at the embryonic stage, and, subsequently, they were incubated at 16° C. In order to prevent interferences caused by physiological stresses resulting from this process, they were allowed to grow to the following generation. 5 or 6 L4 per plate were then transferred to 4 plates, and were once again incubated at 16° C. to L4, the stage selected to start the longevity curves.
On day zero, 120 L4 of each strain were transferred to new plates, 20 worms per plate, and incubated at the temperature at which the assay was subsequently performed, i.e. 25° C.
During the first week of the curves, the nematodes were transferred to new plates every 2 days, in order to prevent confusions with potential descendants. Subsequently, they were checked every 2 or 3 days, and those specimens that were lost or dead for non-physiological reasons were withdrawn from the study. The individuals were transferred to new plates every 5 days in order to maintain optimal growth conditions in the plates. The specimens were considered to be dead when they ceased to respond upon being softly touched with the platinum wire.
The longevity was studied in the presence of the steroid sulfatase inhibitor STX64 (SIGMA, S1950-5MG) diluted in DMSO at 5 μg/μl. […] The preparation and synchronisation of the nematodes until day=0 was the same as in the preceding case, the only difference being that the nematodes were transferred to fresh plates every two or three days until the curve was completed.
We used the GraphPad Prism 5 programme (Version 5.0a, for Mac OS X. 1992-2008 GraphPad Software, Inc.) in the survival curve mode to represent the longevity curves, and the Kaplan-Meier method was used to perform the statistical analysis thereof. […]

NS(=O)(=O)Oc1ccc2c3c(c(=O)oc2c1)CCCCC3 [STX64, Irosustat]
effect of treatment on ageing (C. elegans, FIG. 3): delayed ageing | longevity (longevity curve) versus control population exposed to the inhibitor solvent (DMSO) (wild type population supplemented with 0.5 μg/ml): lives significantly longer | longevity (longevity curve) versus control population exposed to the inhibitor solvent (DMSO) (wild type population supplemented with 1 μg/ml): lives significantly longer
